Reference: the NIST ThermoML archive (doi:10.1016/j.jct.2019.02.028)

Assay: xn = mol fraction of the nth substance listed
Details: Gas, Burnett expansion method

C=C(F)C(F)(F)F [2,3,3,3-tetrafluoro-1-propene] + FCF
Details	mass density [kg/m3]
353.42 K, 2273.3 kPa, x2 = 0.259	105.33
353.43 K, 588.71 kPa, x2 = 0.874	12.5
353.43 K, 1253 kPa, x2 = 0.874	28.21
353.47 K, 861.21 kPa, x2 = 0.874	18.78
358.31 K, 1928.5 kPa, x2 = 0.698	54.05
358.32 K, 1240.6 kPa, x2 = 0.449	40.46
358.33 K, 586.28 kPa, x2 = 0.449	17.94
358.33 K, 2665 kPa, x2 = 0.698	81.18
358.34 K, 639.13 kPa, x2 = 0.698	15.95
358.34 K, 1357.4 kPa, x2 = 0.698	35.99
358.34 K, 1994 kPa, x2 = 0.119	94.76
358.34 K, 2418.3 kPa, x2 = 0.449	91.37
358.34 K, 3167.9 kPa, x2 = 0.449	137.24
358.34 K, 3474 kPa, x2 = 0.874	95.77
358.35 K, 591.83 kPa, x2 = 0.259	20.68
358.35 K, 858.88 kPa, x2 = 0.449	26.94
358.35 K, 937.43 kPa, x2 = 0.698	23.96
358.35 K, 1463 kPa, x2 = 0.119	63.06
358.35 K, 1759.6 kPa, x2 = 0.449	60.82
358.35 K, 2335.1 kPa, x2 = 0.259	105.31
358.35 K, 2564.1 kPa, x2 = 0.874	63.62
358.35 K, 3529.2 kPa, x2 = 0.698	121.89
358.36 K, 1237.2 kPa, x2 = 0.259	46.66
358.36 K, 1730.8 kPa, x2 = 0.259	70.06
358.36 K, 1828.8 kPa, x2 = 0.874	42.36
358.36 K, 2579.2 kPa, x2 = 0.119	142.43
358.36 K, 2999.2 kPa, x2 = 0.259	158.78
358.36 K, 4405.8 kPa, x2 = 0.698	183.14
358.36 K, 4479.7 kPa, x2 = 0.874	144.13
358.37 K, 719.85 kPa, x2 = 0.119	27.94
358.37 K, 862.94 kPa, x2 = 0.259	31.07
358.37 K, 1037.7 kPa, x2 = 0.119	41.96
358.38 K, 1274.6 kPa, x2 = 0.874	28.2
358.38 K, 3076.3 kPa, x2 = 0.119	213.92
358.39 K, 597.87 kPa, x2 = 0.874	12.5
358.41 K, 875.21 kPa, x2 = 0.874	18.78
363.26 K, 1966.8 kPa, x2 = 0.698	54.03
363.26 K, 2727.3 kPa, x2 = 0.698	81.16
363.27 K, 1262.7 kPa, x2 = 0.449	40.45
363.28 K, 595.28 kPa, x2 = 0.449	17.93
363.28 K, 648.9 kPa, x2 = 0.698	15.95
363.28 K, 2476.7 kPa, x2 = 0.449	91.33
363.28 K, 3265.9 kPa, x2 = 0.449	137.17
363.28 K, 3632.6 kPa, x2 = 0.698	121.86
363.28 K, 4041.7 kPa, x2 = 0.449	205.81
363.29 K, 1381.4 kPa, x2 = 0.698	35.97
363.29 K, 1795.1 kPa, x2 = 0.449	60.79
363.29 K, 1863 kPa, x2 = 0.874	42.34
363.29 K, 2043.8 kPa, x2 = 0.119	94.71
363.29 K, 2396.3 kPa, x2 = 0.259	105.29
363.29 K, 3100.7 kPa, x2 = 0.259	158.62
363.29 K, 3726.8 kPa, x2 = 0.259	238.72
363.29 K, 4575.5 kPa, x2 = 0.698	183.09
363.3 K, 601.42 kPa, x2 = 0.259	20.68
363.3 K, 872.75 kPa, x2 = 0.449	26.93
363.3 K, 1296.1 kPa, x2 = 0.874	28.19
363.3 K, 1768.3 kPa, x2 = 0.259	70.06
363.3 K, 2619.4 kPa, x2 = 0.874	63.6
363.3 K, 2663.3 kPa, x2 = 0.119	142.34
363.3 K, 3565.6 kPa, x2 = 0.874	95.7
363.3 K, 4630.5 kPa, x2 = 0.874	143.96
363.31 K, 731.75 kPa, x2 = 0.119	27.93
363.31 K, 952.86 kPa, x2 = 0.698	23.95
363.31 K, 1056.3 kPa, x2 = 0.119	41.95
363.31 K, 1260.4 kPa, x2 = 0.259	46.66
363.31 K, 3222.3 kPa, x2 = 0.119	213.79
363.32 K, 877.52 kPa, x2 = 0.259	31.06
363.32 K, 1493.6 kPa, x2 = 0.119	63.03
363.33 K, 606.82 kPa, x2 = 0.874	12.5
363.33 K, 888.85 kPa, x2 = 0.874	18.77
368.2 K, 2004.8 kPa, x2 = 0.698	54.02
368.22 K, 604.3 kPa, x2 = 0.449	17.93
368.22 K, 658.7 kPa, x2 = 0.698	15.94
368.22 K, 1285 kPa, x2 = 0.449	40.44
368.22 K, 2534.6 kPa, x2 = 0.449	91.28
368.22 K, 2789.6 kPa, x2 = 0.698	81.13
368.22 K, 3362.6 kPa, x2 = 0.449	137.11
368.22 K, 4205.2 kPa, x2 = 0.449	205.77
368.23 K, 967.59 kPa, x2 = 0.698	23.94
368.23 K, 1830.4 kPa, x2 = 0.449	60.77
368.23 K, 3201.4 kPa, x2 = 0.259	158.47
368.23 K, 3655.1 kPa, x2 = 0.874	95.63
368.23 K, 3734.8 kPa, x2 = 0.698	121.83
368.23 K, 3898.2 kPa, x2 = 0.259	238.37
368.23 K, 4743.3 kPa, x2 = 0.698	183.03
368.24 K, 610.69 kPa, x2 = 0.259	20.68
368.24 K, 1317.5 kPa, x2 = 0.874	28.18
368.24 K, 1405.2 kPa, x2 = 0.698	35.96
368.24 K, 1523.3 kPa, x2 = 0.119	63.01
368.24 K, 1805.3 kPa, x2 = 0.259	70.05
368.24 K, 1897.2 kPa, x2 = 0.874	42.33
368.24 K, 2093.2 kPa, x2 = 0.119	94.66
368.24 K, 2457.3 kPa, x2 = 0.259	105.26
368.24 K, 2674.2 kPa, x2 = 0.874	63.58
368.24 K, 4778.9 kPa, x2 = 0.874	143.8
368.25 K, 743.56 kPa, x2 = 0.119	27.92
368.25 K, 886.98 kPa, x2 = 0.449	26.92
368.25 K, 1075 kPa, x2 = 0.119	41.94
368.25 K, 1283.3 kPa, x2 = 0.259	46.65
368.25 K, 2746.3 kPa, x2 = 0.119	142.24
368.25 K, 4383.2 kPa, x2 = 0.259	361.18
368.26 K, 891.98 kPa, x2 = 0.259	31.06
368.26 K, 3365.6 kPa, x2 = 0.119	213.65
368.27 K, 3774.3 kPa, x2 = 0.119	320.57
368.28 K, 615.74 kPa, x2 = 0.874	12.49
368.29 K, 902.66 kPa, x2 = 0.874	18.76
373.13 K, 2042.5 kPa, x2 = 0.698	54
373.14 K, 613.24 kPa, x2 = 0.449	17.92
373.15 K, 668.24 kPa, x2 = 0.698	15.94
373.15 K, 1428.2 kPa, x2 = 0.698	35.95
373.15 K, 2592.1 kPa, x2 = 0.449	91.24
373.15 K, 4365.9 kPa, x2 = 0.449	205.72
373.15 K, 4909.8 kPa, x2 = 0.698	182.98
373.16 K, 982.7 kPa, x2 = 0.698	23.94
373.16 K, 2850.9 kPa, x2 = 0.698	81.11
373.16 K, 3458.2 kPa, x2 = 0.449	137.04
373.16 K, 3835.9 kPa, x2 = 0.698	121.81
373.17 K, 1307 kPa, x2 = 0.449	40.43
373.17 K, 1552.9 kPa, x2 = 0.119	62.98
373.17 K, 1842 kPa, x2 = 0.259	70.05
373.17 K, 2141.9 kPa, x2 = 0.119	94.62
373.17 K, 3744.3 kPa, x2 = 0.874	95.56
